Test results: ChEMBL document CHEMBL1201862, “PubChem BioAssay data set” (2004)
Active and inactive are the calls of the source. Rule as the data show it, for most assays here: actives have a measured EC50 and inactives only a lower limit.

How the values were obtained:
Protein skinhead-1 = molecular target: T1, Protein skinhead-1 (Caenorhabditis elegans, UniProt P34707); format: functional
T1 sequence (P34707 whole entry): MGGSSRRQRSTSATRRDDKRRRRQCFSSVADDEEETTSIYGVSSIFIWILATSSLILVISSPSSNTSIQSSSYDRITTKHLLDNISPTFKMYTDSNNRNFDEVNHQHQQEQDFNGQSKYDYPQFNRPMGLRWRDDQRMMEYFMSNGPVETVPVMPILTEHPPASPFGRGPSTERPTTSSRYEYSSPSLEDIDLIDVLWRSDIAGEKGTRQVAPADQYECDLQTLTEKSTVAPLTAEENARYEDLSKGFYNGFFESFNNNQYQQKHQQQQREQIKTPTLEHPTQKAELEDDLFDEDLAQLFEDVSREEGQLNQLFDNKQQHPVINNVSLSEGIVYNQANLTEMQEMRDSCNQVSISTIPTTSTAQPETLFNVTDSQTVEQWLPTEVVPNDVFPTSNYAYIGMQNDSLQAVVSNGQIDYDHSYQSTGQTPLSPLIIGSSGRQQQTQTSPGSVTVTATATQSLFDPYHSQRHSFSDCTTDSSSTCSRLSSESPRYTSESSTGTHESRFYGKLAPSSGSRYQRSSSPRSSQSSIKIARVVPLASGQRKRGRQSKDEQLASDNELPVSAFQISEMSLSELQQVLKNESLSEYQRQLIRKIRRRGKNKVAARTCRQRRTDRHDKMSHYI

cells [1] = format: functional, cell-based
cells [2] = format: functional, cell-based; remark: listed apart in the source
Cytochrome P450 2D6 = Cytochrome P450 2D6 (Homo sapiens, UniProt P10635);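 also: CYP2D6 member of a cytochrome P450 panel assay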
Genome polyprotein = Genome polyprotein (dengue virus type 2, UniProt P29990); assay: flavivirus cap methylation enzyme inhibition – biochemical, confirmation dose response, primary screen (AID 588689); format: functional
[3] = molecular target: T2, Heat shock factor protein 1 (Mus musculus, UniProt P38532); assay: enhancement of HSF1-driven luciferase signal – cell-based, NIH3T3, luminescence, dose retest, confirmation (AID 435004); format: functional;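 also: stress induced by proteasome inhibitor MG132 added 30 min after compound; luciferase reporter driven by HSF1 response element in NIH3T3 cells; actives raise luminescence as potentiators of the MG132 stress response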
T2 sequence (P38532 whole entry): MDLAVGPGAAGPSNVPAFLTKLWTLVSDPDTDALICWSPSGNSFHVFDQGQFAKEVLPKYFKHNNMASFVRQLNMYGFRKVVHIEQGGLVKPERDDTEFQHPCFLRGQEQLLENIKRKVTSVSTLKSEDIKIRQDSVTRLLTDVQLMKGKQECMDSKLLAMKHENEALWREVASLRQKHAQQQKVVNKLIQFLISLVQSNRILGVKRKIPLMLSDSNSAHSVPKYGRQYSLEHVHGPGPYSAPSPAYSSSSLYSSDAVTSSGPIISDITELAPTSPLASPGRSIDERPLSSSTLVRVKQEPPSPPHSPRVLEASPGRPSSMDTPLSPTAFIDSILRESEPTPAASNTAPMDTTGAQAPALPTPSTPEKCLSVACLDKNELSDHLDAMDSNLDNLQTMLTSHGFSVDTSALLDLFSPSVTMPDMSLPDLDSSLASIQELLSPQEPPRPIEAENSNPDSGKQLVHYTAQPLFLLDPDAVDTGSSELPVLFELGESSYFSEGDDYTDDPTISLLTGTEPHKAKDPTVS

[4] = molecular target: T3, Zinc finger protein mex-5 (Caenorhabditis elegans, UniProt Q9XUB2); assay: potency of MEX-5 RNA-binding blockers – biochemical, C. elegans, fluorescence polarization, dose response (AID 1960)
T3 sequence (Q9XUB2 whole entry): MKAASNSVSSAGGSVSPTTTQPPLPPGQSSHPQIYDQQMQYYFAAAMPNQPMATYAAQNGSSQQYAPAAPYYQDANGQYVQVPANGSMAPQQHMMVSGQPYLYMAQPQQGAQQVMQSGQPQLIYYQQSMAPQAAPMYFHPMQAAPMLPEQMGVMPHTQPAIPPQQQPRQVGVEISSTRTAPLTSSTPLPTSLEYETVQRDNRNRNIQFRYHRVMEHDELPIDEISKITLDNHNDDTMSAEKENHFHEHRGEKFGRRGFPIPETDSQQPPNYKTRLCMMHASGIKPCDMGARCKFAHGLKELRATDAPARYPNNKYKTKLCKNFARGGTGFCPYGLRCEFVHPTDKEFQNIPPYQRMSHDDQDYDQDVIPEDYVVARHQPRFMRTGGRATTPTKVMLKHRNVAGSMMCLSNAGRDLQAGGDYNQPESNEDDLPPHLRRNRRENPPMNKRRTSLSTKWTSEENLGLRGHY

[5] = molecular target: T4, RNA-binding protein pos-1 (Caenorhabditis elegans, UniProt G5EF15); assay: disruptors of C. elegans POS-1 RNA interaction – biochemical, fluorescence polarization, dose response (AID 1964);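 also: purified POS-1 fused to maltose binding protein made in E. coli; potency of compounds blocking POS-1 binding to fluorescent RNA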
T4 sequence (G5EF15 whole entry): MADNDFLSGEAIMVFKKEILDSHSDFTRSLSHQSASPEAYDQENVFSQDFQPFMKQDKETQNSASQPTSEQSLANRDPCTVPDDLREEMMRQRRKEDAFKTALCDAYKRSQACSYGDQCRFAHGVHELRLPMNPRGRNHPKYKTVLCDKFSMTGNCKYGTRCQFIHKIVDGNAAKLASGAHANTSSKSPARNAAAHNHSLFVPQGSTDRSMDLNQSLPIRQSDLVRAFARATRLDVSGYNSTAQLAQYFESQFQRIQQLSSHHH

[6] = molecular target: T2, Heat shock factor protein 1; assay: decrease of HSF1-responsive luciferase luminescence – cell-based, NIH3T3, dose retest, confirmation (AID 2382); format: functional;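 also: NIH3T3 fibroblasts with HSF1-driven luciferase reporter stressed by proteasome inhibitor MG132; luminescence from HSF1-driven luciferase expression after 8 hours of MG132 stress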
[7] = non-specific 3'UTR reporter inhibition in Clone20-Shn3RL – cell-based, Renilla luciferase, cherry-picked, counter-screen for Shn3 inhibitor project, dose response (AID 624133); format: functional
[8] = molecular target: T5, Microphthalmia-associated transcription factor (Homo sapiens, UniProt O75030); assay: reducers of TRPM1 reporter luminescence, concentration series – cell-based, SK-MEL-5, cherry-picked, set 3, MITF inhibitor project, dose response (AID 493073); format: functional;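 also: SK-MEL-5 melanoma cells with luciferase driven by the MITF target TRPM1 promoter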
T5 sequence (O75030 whole entry): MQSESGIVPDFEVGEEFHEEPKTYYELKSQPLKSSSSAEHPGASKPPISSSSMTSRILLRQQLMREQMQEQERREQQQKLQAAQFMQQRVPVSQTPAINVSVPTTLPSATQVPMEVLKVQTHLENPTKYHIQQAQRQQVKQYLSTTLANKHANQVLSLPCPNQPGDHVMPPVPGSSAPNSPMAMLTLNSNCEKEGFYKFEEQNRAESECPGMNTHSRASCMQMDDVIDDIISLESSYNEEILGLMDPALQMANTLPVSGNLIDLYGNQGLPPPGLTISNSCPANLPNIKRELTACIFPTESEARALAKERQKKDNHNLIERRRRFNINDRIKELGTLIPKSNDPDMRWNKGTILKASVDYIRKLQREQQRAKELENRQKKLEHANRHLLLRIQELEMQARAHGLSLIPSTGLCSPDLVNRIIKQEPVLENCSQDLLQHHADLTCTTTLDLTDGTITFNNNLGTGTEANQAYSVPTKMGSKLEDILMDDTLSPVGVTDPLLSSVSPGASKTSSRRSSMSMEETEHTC

[9] = NIH-3T3 fibroblast cytotoxicity, dose response, cytotoxicity control, cell-based, fluorescence, Alamar Blue, secondary assay (AID 2327); format: functional;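 also: NIH-3T3 mouse fibroblasts cultured with fluconazole at 8 µg/mL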
[10] = alpha-synuclein stem-loop luciferase translation blockers – H4 neuroglioma cells, luminescence, confirmation (AID 1988); format: functional, cell-based
[11] = luciferase reporter signal suppression in cells – H4 neuroglioma cells, luminescence, dose response (AID 1990); format: functional, cell-based
[12] = Luminescence Cell-Based Dose Response HTS to Identify Inhibitors of 5'UTR Stem-Loop Driven Prion Protein mRNA Translation in H4 Neuroglioblastoma Cells. [Related pubchem assays: 1827 (Project Summary), 1813 (Primary HTS)]; format: functional
INS1 = assay: INS-1E survival protection against cytokine death – cell-based, luminescence, retest, dose response (AID 449756); format: functional; settings: Rattus norvegicus;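 also: cell death triggered by IL-1 beta plus TNF-alpha plus IFN-gamma mixture; protective hits raise ATP signal compared with cytokine alone wells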

Chain of Genome polyprotein (P29990 2492-3391 limits assumed): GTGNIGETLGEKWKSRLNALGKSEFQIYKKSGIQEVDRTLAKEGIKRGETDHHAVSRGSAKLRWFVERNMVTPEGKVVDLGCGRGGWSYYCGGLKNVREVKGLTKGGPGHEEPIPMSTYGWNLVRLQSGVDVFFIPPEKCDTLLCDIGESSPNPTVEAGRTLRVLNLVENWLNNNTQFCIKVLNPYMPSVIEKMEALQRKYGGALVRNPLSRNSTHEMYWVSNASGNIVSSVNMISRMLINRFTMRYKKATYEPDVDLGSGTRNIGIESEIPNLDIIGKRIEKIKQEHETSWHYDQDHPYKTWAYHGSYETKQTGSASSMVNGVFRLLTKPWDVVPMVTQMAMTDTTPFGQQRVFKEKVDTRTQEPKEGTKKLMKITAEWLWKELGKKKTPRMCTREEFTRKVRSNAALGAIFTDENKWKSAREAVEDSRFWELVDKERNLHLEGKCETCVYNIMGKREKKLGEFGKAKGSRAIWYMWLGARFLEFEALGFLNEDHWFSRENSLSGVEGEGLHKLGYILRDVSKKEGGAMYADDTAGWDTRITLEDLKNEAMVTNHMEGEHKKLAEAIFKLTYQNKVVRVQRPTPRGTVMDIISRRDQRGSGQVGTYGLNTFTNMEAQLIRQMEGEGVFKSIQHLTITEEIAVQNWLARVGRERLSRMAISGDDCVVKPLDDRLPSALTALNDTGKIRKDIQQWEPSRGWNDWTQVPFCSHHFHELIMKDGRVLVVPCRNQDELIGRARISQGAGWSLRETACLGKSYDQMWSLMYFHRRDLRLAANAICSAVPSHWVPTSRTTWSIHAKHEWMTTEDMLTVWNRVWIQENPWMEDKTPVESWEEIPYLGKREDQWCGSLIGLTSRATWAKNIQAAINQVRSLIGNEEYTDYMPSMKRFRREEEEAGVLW
Chain of Cytochrome P450 2D6 (P10635 whole entry): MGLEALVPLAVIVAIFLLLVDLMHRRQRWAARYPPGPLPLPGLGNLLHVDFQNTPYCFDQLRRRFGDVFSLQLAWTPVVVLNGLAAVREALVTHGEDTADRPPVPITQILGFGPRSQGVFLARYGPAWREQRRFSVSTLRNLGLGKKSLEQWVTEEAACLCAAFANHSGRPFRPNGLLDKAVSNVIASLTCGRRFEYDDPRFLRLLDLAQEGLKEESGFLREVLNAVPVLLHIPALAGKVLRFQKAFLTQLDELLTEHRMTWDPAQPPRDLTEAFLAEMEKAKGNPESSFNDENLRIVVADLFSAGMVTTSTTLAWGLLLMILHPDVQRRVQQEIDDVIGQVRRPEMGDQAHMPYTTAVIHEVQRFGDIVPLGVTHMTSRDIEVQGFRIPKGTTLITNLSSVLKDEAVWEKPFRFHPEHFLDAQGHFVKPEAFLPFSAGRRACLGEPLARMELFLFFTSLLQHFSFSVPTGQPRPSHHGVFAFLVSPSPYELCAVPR

COc1cc(NS(=O)(=O)c2ccc(Br)cc2)c(OC)cc1NC(=O)c1ccco1
IC50 (Protein skinhead-1): > 100 µM (inactive)

O=C(COc1ccc(Cl)cc1Cl)N/N=C/CCc1ccccc1
EC50 (cells [1]): > 350 µM (not active)
EC50 (cells [2]): > 350 µM (not active)
AC50 (Cytochrome P450 2D6): 3.16 µM (inconclusive)

COc1cc(NS(=O)(=O)c2ccc(C)cc2)c2c(c1N)C(=O)c1ccccc1C2=O
IC50 (Protein skinhead-1): > 100 µM (inactive)

Cc1cc(C)c2c(N)c(C(=O)Nc3ccccc3F)sc2n1
EC50 (cells [1]): > 350 µM (not active)
EC50 (cells [2]): 131 µM (active)

O=S(=O)([O-])CCC[n+]1c(SCCCS(=O)(=O)O)sc2ccc(Cl)cc21
IC50 (Genome polyprotein): > 100 µM (active)

Brc1ccc(CSc2nnc(-c3ccco3)o2)cc1
IC50 (Protein skinhead-1): 8.76 µM (active)

CN1C(=O)C2(c3ccccc31)N(C)CC(c1ccccn1)C21SC(=S)N(Cc2ccco2)C1=O (stereo unspecified)
EC50 [3]: > 260 µM (inactive)

COc1ccc(C2(c3ccc(OC)cc3)NC(=O)N(CC(=O)N(C)c3ccccc3)C2=O)cc1
EC50 [3]: > 260 µM (inactive)

Oc1ccc(N=Nc2ccccc2-c2nn[nH]n2)c(O)c1
EC50 [4]: > 300 µM (not active)
IC50 (Genome polyprotein): > 100 µM (active)
EC50 [5]: > 300 µM (not active)

CCn1nc(C(=O)OCC(=O)NC(C)C)c2ccccc2c1=O
EC50 (cells [1]): > 350 µM (not active)
EC50 [6]: > 195 µM (not active)
EC50 (cells [2]): > 350 µM (not active)

COc1ccc(-c2csc(NC(=O)c3ccccc3Br)c2C(=O)O)cc1
IC50 (Genome polyprotein): 74.4 µM (active)

C=CCn1c(N2CCCCCC2)nc2c1c(=O)[nH]c(=O)n2C
EC50 (cells [1]): > 350 µM (not active)
EC50 (cells [2]): > 350 µM (not active)

CC1(C)C(=Cc2ccccc2)C(=O)c2ccccc21
IC50 (Protein skinhead-1): 18 µM (active)

O=C(O)c1cccc(Nc2nc3ccccc3nc2NS(=O)(=O)c2cccs2)c1
IC50 (Genome polyprotein): 66.3 µM (active)

COCCNC(=O)C(c1ccc(C)o1)N(Cc1ccc(OC)cc1)C(=O)Cn1nnc2ccccc21 (stereo unspecified)
IC50 (Protein skinhead-1): > 100 µM (inactive)

OC(c1ccccc1)C(O)C(c1ccccc1)N1CCCCC1 (stereo unspecified)
AC50 [7]: 23.1 µM (active)

Cc1ccc(/C=C(\C#N)c2nn(-c3ccccc3)c(N)c2C#N)cc1
EC50 (cells [1]): > 350 µM (not active)
EC50 (cells [2]): > 350 µM (not active)

COc1cccc(NC(=O)c2cc3c(=O)n4ccccc4nc3n(CC(C)C)c2=N)c1
AC50 [8]: 7.02 µM (active)

COc1ccccc1CN1CC(C(=O)NCCc2ncccc2C)CCC1=O (stereo unspecified)
EC50 [3]: > 260 µM (inactive)

Clc1ccc(SCc2cc(-c3ccccc3)on2)cc1
IC50 (Protein skinhead-1): > 100 µM (inactive)

COc1cc(-c2nnc3sc(Cc4ccc(Cl)cc4)nn23)cc(OC)c1OC
EC50 [3]: > 260 µM (inactive)

O=C(O)/C(=C\c1ccc(Cl)c([N+](=O)[O-])c1)c1ccc(S(=O)(=O)N2CCCCC2)s1
IC50 (Genome polyprotein): 81.4 µM (active)

CCCS(=O)(=O)NC(=O)C1(C)CCN(C(=O)c2cccc(C)c2C)C1 (stereo unspecified)
IC50 (Protein skinhead-1): > 100 µM (inactive)

Cc1cc(-c2nnc(CCC(=O)N(C)Cc3cccc4ccccc34)o2)no1
EC50 [3]: > 260 µM (inactive)

CCOC(=O)c1c(-c2ccc(C)o2)csc1NC(=O)CSc1nncs1
EC50 [3]: > 260 µM (inactive)

CCCN(CC(=O)Nc1ccc(Cl)cc1Cl)C(=O)/C=C/c1ccco1
EC50 [3]: 17.6 µM (active)

Cc1nc2ccccc2cc1OCc1ccc(Cl)cc1
IC50 (Protein skinhead-1): 57.9 µM (inactive)

C=CCn1c(COc2ccc(F)cc2)nnc1SCC(=O)Nc1cccc(S(N)(=O)=O)c1
EC50 [9]: > 160 µM (inactive)

Cc1c(Cl)c(C(=O)NC2CCCC2)nn1C
EC50 [3]: > 260 µM (inactive)

COc1ccccc1CCC(=O)OCC(=O)Nc1c(Br)cc(C)cc1Br
EC50 [3]: > 260 µM (inactive)

O=C(N/N=C/c1cc([N+](=O)[O-])ccc1O)c1cccc2cc[nH]c12
EC50 (cells [1]): 311 µM (active)
EC50 (cells [2]): 24.6 µM (active)
EC50 [10]: 14.8 µM (active)
EC50 [11]: > 120 µM (not active)
EC50 [12]: 10.3 µM (active)
AC50 (INS1): 2.02 µM (active)

O=C(COC(=O)c1ccccc1C(=O)c1ccccc1)Nc1cccc([N+](=O)[O-])c1
EC50 [3]: > 260 µM (inactive)
